Results on one compound are retold here after patent US4895937A, “5-ioso-2-pyrimidinone nucleoside” (The Research Foundation of State University of New York, priority 1988, dated 1990).

For one experiment, the system named is HSV-2 (strain 333). The experiment in a line: Antiviral activity, HSV-2 plaque reduction (Example 8 Part A). Type of experiment: cell-based. The method, then: The effects of 1-(2-Deoxy-β-D-ribofuranosyl)-5-iodo-2-pyrimidinone (IPdR) of Example 3 were compared with 1-(2-Deoxy-β-D-ribofuranosyl)-5-fluoro-2-pyrimidinone (FPdR) on HSV-2 (strain 333) in […]. Twenty four well plates (sterile) were plated with 10^6 Vero cells/well the day before infecting. 250 PFU of HSV-2 were used in each well. The test compounds, IPdR and FPdR, were added at zero times of post infection and the cultures incubated at 37° C. for 48 hours. At the end of the incubation period the media was removed from Vero cells. Plates were strained with 0.8% crystal violet in 50% ethanol for 15 minutes. The plaque was counted.

Another experiment relates to HSV-1 (KOS). The experiment in a line: Antiherpes activity, HSV-1 (KOS) (Example 10). It is filed as cell-based. As to conditions: Human alphaherpesvirus 1; 100 μM; read-out: plaque-forming units as % of control. The method, then:
IPdR and 5-bromo-2-pyrimidinone-2-deoxyribonucleoside (BrPdR) were tested for antiherpes activity according to procedures described by Cheng, Y.-C., et al. Antimicrob. Agents Chemother (1976) 10, 119.

Usually inhibition stands for the drop in the measured response relative to a control, in per cent. In the case of `O=c1ncc(I)cn1[C@H]1C[C@H](O)[C@@H](CO)O1` [IPdR, 1-(2-Deoxy-β-D-Ribofuranosyl)-5-iodo-2-pyrimidinone], in the experiment on HSV-2 (strain 333), the “antiviral activity, comparison of IPdR and FPdR” value was “comparable in antiviral activity”. In the experiment with HSV-2 (strain 333) (Human alphaherpesvirus 2, Vero, 100 μM, 48 hours), this compound came in with an inhibition at 100 µM of 51.1%. Besides, the activity at 100 µM in the experiment on HSV-1 (KOS) amounted to 0.27%.
